Molecular target: T1, Olfactory receptor (Rattus norvegicus, UniProt D3Z9H0)
T1 sequence (D3Z9H0 whole entry): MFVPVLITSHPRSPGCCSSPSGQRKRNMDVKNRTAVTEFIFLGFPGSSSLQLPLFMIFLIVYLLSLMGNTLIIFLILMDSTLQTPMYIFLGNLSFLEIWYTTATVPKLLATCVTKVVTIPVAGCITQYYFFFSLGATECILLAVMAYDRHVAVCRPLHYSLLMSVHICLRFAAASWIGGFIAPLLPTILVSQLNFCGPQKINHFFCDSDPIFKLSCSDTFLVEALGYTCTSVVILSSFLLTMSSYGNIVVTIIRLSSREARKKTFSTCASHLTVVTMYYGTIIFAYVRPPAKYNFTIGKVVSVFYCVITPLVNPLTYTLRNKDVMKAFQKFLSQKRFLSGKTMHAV
Experiment: Inhibition Assay
Text: Inhibition assay of olfactory receptors 17 activation.

IC50	SMILES
60 µM	O=CCCC1CCCC1 [Aldehydes, 4]
37 µM	O=CCC1CCCCC1 [Aldehydes, 5]
57 µM	O=CC1CCCCCC1 [Aldehydes, 6]
133 µM	CCCCCC=O [Aldehydes, C6]

SMILES	IC50
CCCCC=O [Aldehydes, C5]	460 µM
